Data: patent publication US20240238242A1, “EGCG buccal tablet and use thereof” (priority 2023, published 2024)
Where two headings read alike, the source gives them in different places.

Tested on: Novel enterovirus D68 (EV-D68)
Type: cell-based
Conditions: for CPE test per cell well: first experiment; for CPE test (virus replication in cell wells) / CPE test (virus replication in the cell wells): wells 1-10; for average inactivation efficiency against virus: 0.2 mM EGCG, EV-D68 virus, three experiments

## O=C(O[C@@H]1Cc2c(O)cc(O)cc2O[C@@H]1c1cc(O)c(O)c(O)c1)c1cc(O)c(O)c(O)c1 [EGCG, Epigallocatechin gallate]
0.2 mM EGCG + EV-D68 virus, 1 minute, dilution factor 10^1, wells 1-10
  CPE test per cell well: +
0.2 mM EGCG + EV-D68 virus, 1 minute, dilution factor 10^2, wells 1-10
  CPE test per cell well: +
0.2 mM EGCG + EV-D68 virus, 1 minute, dilution factor 10^3, wells 1-10
  CPE test per cell well: +
0.2 mM EGCG + EV-D68 virus, 1 minute, dilution factor 10^4, wells 1-10
  CPE test per cell well: +
0.2 mM EGCG + EV-D68 virus, 1 minute, dilution factor 10^5, wells 1-10
  CPE test per cell well: +
0.2 mM EGCG + EV-D68 virus, 1 minute, dilution factor 10^6, wells 1-10
  CPE test per cell well: − and +
0.2 mM EGCG + EV-D68 virus, 1 minute, dilution factor 10^7, wells 1-10
  CPE test per cell well: − and +
0.2 mM EGCG + EV-D68 virus, 1 minute, dilution factor 10^8, wells 1-10
  CPE test per cell well: −
0.2 mM EGCG + EV-D68 virus, co-incubated 5 minute, third experiment, dilution factor 10^1
  CPE test (virus replication in cell wells): +
0.2 mM EGCG + EV-D68 virus, co-incubated 5 minute, third experiment, dilution factor 10^2
  CPE test (virus replication in cell wells): +
0.2 mM EGCG + EV-D68 virus, co-incubated 5 minute, third experiment, dilution factor 10^3
  CPE test (virus replication in cell wells): +
0.2 mM EGCG + EV-D68 virus, co-incubated 5 minute, third experiment, dilution factor 10^4
  CPE test (virus replication in cell wells): +
0.2 mM EGCG + EV-D68 virus, co-incubated 5 minute, third experiment, dilution factor 10^5
  CPE test (virus replication in cell wells): +
0.2 mM EGCG + EV-D68 virus, co-incubated 5 minute, third experiment, dilution factor 10^6
  CPE test (virus replication in cell wells): + and −
0.2 mM EGCG + EV-D68 virus, co-incubated 5 minute, third experiment, dilution factor 10^7
  CPE test (virus replication in cell wells): −
0.2 mM EGCG + EV-D68 virus, co-incubated 5 minute, third experiment, dilution factor 10^8
  CPE test (virus replication in cell wells): −
0.2 mM EGCG + virus, 1 minute, dilution factor 10^1, second experiment
  CPE test (virus replication in cell wells): +
0.2 mM EGCG + virus, 1 minute, dilution factor 10^1, third experiment
  CPE test (virus replication in cell wells): +
0.2 mM EGCG + virus, 1 minute, dilution factor 10^2, second experiment
  CPE test (virus replication in cell wells): +
0.2 mM EGCG + virus, 1 minute, dilution factor 10^2, third experiment
  CPE test (virus replication in cell wells): +
0.2 mM EGCG + virus, 1 minute, dilution factor 10^3, second experiment
  CPE test (virus replication in cell wells): +
0.2 mM EGCG + virus, 1 minute, dilution factor 10^3, third experiment
  CPE test (virus replication in cell wells): +
0.2 mM EGCG + virus, 1 minute, dilution factor 10^4, second experiment
  CPE test (virus replication in cell wells): +
0.2 mM EGCG + virus, 1 minute, dilution factor 10^4, third experiment
  CPE test (virus replication in cell wells): +
0.2 mM EGCG + virus, 1 minute, dilution factor 10^5, second experiment
  CPE test (virus replication in cell wells): +
0.2 mM EGCG + virus, 1 minute, dilution factor 10^5, third experiment
  CPE test (virus replication in cell wells): +
0.2 mM EGCG + virus, 1 minute, dilution factor 10^6, second experiment
  CPE test (virus replication in cell wells): − and +
0.2 mM EGCG + virus, 1 minute, dilution factor 10^6, third experiment
  CPE test (virus replication in cell wells): − and +
0.2 mM EGCG + virus, 1 minute, dilution factor 10^7, second experiment
  CPE test (virus replication in cell wells): − and +
0.2 mM EGCG + virus, 1 minute, dilution factor 10^7, third experiment
  CPE test (virus replication in cell wells): − and +
0.2 mM EGCG + virus, 1 minute, dilution factor 10^8, second experiment
  CPE test (virus replication in cell wells): −
0.2 mM EGCG + virus, 1 minute, dilution factor 10^8, third experiment
  CPE test (virus replication in cell wells): −
0.2 mM EGCG + virus, co-incubated 5 minute, dilution factor 10^1, first experiment
  CPE test (virus replication in the cell wells): +
0.2 mM EGCG + virus, co-incubated 5 minute, dilution factor 10^1, second experiment
  CPE test (virus replication in the cell wells): +
0.2 mM EGCG + virus, co-incubated 5 minute, dilution factor 10^2, first experiment
  CPE test (virus replication in the cell wells): +
0.2 mM EGCG + virus, co-incubated 5 minute, dilution factor 10^2, second experiment
  CPE test (virus replication in the cell wells): +
0.2 mM EGCG + virus, co-incubated 5 minute, dilution factor 10^3, first experiment
  CPE test (virus replication in the cell wells): +
0.2 mM EGCG + virus, co-incubated 5 minute, dilution factor 10^3, second experiment
  CPE test (virus replication in the cell wells): +
0.2 mM EGCG + virus, co-incubated 5 minute, dilution factor 10^4, first experiment
  CPE test (virus replication in the cell wells): +
0.2 mM EGCG + virus, co-incubated 5 minute, dilution factor 10^4, second experiment
  CPE test (virus replication in the cell wells): +
0.2 mM EGCG + virus, co-incubated 5 minute, dilution factor 10^5, first experiment
  CPE test (virus replication in the cell wells): +
0.2 mM EGCG + virus, co-incubated 5 minute, dilution factor 10^5, second experiment
  CPE test (virus replication in the cell wells): +
0.2 mM EGCG + virus, co-incubated 5 minute, dilution factor 10^6, first experiment
  CPE test (virus replication in the cell wells): − and +
0.2 mM EGCG + virus, co-incubated 5 minute, dilution factor 10^6, second experiment
  CPE test (virus replication in the cell wells): + and −
0.2 mM EGCG + virus, co-incubated 5 minute, dilution factor 10^7, first experiment
  CPE test (virus replication in the cell wells): −
0.2 mM EGCG + virus, co-incubated 5 minute, dilution factor 10^7, second experiment
  CPE test (virus replication in the cell wells): −
0.2 mM EGCG + virus, co-incubated 5 minute, dilution factor 10^8, first experiment
  CPE test (virus replication in the cell wells): −
0.2 mM EGCG + virus, co-incubated 5 minute, dilution factor 10^8, second experiment
  CPE test (virus replication in the cell wells): −
1 minute
  average inactivation efficiency against virus: 12.30%
5 minutes
  average inactivation efficiency against virus: 35.78%
1 mM EGCG + EV-D68 virus, 1 minute, dilution factor 10^1, wells 1-10
  CPE test per cell well: +
1 mM EGCG + EV-D68 virus, 1 minute, dilution factor 10^2, wells 1-10
  CPE test per cell well: +
1 mM EGCG + EV-D68 virus, 1 minute, dilution factor 10^3, wells 1-10
  CPE test per cell well: +
1 mM EGCG + EV-D68 virus, 1 minute, dilution factor 10^4, wells 1-10
  CPE test per cell well: +
1 mM EGCG + EV-D68 virus, 1 minute, dilution factor 10^5, wells 1-10
  CPE test per cell well: +
1 mM EGCG + EV-D68 virus, 1 minute, dilution factor 10^6, wells 1-10
  CPE test per cell well: + and −
1 mM EGCG + EV-D68 virus, 1 minute, dilution factor 10^7, wells 1-10
  CPE test per cell well: −
1 mM EGCG + EV-D68 virus, 1 minute, dilution factor 10^8, wells 1-10
  CPE test per cell well: −
1 mM EGCG + EV-D68 virus, co-incubated 5 minute, third experiment, dilution factor 10^1
  CPE test (virus replication in cell wells): +
1 mM EGCG + EV-D68 virus, co-incubated 5 minute, third experiment, dilution factor 10^2
  CPE test (virus replication in cell wells): +
1 mM EGCG + EV-D68 virus, co-incubated 5 minute, third experiment, dilution factor 10^3
  CPE test (virus replication in cell wells): +
1 mM EGCG + EV-D68 virus, co-incubated 5 minute, third experiment, dilution factor 10^4
  CPE test (virus replication in cell wells): +
1 mM EGCG + EV-D68 virus, co-incubated 5 minute, third experiment, dilution factor 10^5
  CPE test (virus replication in cell wells): +
1 mM EGCG + EV-D68 virus, co-incubated 5 minute, third experiment, dilution factor 10^6
  CPE test (virus replication in cell wells): + and −
1 mM EGCG + EV-D68 virus, co-incubated 5 minute, third experiment, dilution factor 10^7
  CPE test (virus replication in cell wells): −
1 mM EGCG + EV-D68 virus, co-incubated 5 minute, third experiment, dilution factor 10^8
  CPE test (virus replication in cell wells): −
1 mM EGCG + virus, 1 minute, dilution factor 10^1, second experiment
  CPE test (virus replication in cell wells): +
1 mM EGCG + virus, 1 minute, dilution factor 10^1, third experiment
  CPE test (virus replication in cell wells): +
1 mM EGCG + virus, 1 minute, dilution factor 10^2, second experiment
  CPE test (virus replication in cell wells): +
1 mM EGCG + virus, 1 minute, dilution factor 10^2, third experiment
  CPE test (virus replication in cell wells): +
1 mM EGCG + virus, 1 minute, dilution factor 10^3, second experiment
  CPE test (virus replication in cell wells): +
1 mM EGCG + virus, 1 minute, dilution factor 10^3, third experiment
  CPE test (virus replication in cell wells): +
1 mM EGCG + virus, 1 minute, dilution factor 10^4, second experiment
  CPE test (virus replication in cell wells): +
1 mM EGCG + virus, 1 minute, dilution factor 10^4, third experiment
  CPE test (virus replication in cell wells): +
